According to ChEMBL document CHEMBL1201862, “PubChem BioAssay data set” (2004):
Activity calls are given as the source filed them.

Columns and labels:
[1] = biological target: T1, Interleukin-1 receptor-associated kinase 4 (Homo sapiens, UniProt Q9NWZ3); format: functional
T1 sequence (Q9NWZ3 whole entry): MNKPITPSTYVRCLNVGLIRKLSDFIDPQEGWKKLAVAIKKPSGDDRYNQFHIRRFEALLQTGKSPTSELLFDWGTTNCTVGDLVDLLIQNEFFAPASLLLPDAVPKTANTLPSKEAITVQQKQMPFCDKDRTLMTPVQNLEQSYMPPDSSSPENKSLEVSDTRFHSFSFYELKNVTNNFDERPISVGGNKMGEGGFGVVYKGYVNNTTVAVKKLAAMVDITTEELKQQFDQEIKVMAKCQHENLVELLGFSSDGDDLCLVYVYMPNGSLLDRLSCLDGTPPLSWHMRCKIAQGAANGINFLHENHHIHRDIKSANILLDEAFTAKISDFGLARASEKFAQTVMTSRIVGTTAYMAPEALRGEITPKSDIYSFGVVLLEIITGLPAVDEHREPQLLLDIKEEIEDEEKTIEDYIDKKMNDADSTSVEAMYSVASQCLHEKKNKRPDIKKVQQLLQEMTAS

Wee1-like protein kinase = Wee1-like protein kinase (Homo sapiens, UniProt P30291); test: Navigating the Kinome. Panel member name: WEE1; format: functional
Wee1-like protein kinase, sequence (P30291 whole entry): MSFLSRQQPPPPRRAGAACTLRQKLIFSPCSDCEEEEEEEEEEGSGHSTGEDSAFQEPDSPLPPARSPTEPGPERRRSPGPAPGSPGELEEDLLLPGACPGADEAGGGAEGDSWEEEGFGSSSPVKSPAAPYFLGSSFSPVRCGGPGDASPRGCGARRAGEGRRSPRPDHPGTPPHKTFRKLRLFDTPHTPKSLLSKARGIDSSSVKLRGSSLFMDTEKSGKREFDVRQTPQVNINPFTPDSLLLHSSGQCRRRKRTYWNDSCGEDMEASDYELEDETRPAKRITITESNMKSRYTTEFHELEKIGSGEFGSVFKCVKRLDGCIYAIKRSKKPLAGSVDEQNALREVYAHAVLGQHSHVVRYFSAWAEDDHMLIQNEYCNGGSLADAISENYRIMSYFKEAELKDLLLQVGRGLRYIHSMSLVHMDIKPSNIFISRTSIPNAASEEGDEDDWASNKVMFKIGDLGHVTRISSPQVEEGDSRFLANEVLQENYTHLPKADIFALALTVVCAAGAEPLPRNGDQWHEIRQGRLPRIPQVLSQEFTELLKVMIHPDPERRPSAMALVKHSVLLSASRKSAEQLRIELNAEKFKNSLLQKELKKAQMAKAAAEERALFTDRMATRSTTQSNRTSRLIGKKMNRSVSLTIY

[2] = biological target: Proto-oncogene tyrosine-protein kinase Src (Homo sapiens, UniProt P12931); format: functional;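 further: SRC entry within a kinome-wide kinase profiling panel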
Proto-oncogene tyrosine-protein kinase Src, sequence (P12931 2-536 limits assumed): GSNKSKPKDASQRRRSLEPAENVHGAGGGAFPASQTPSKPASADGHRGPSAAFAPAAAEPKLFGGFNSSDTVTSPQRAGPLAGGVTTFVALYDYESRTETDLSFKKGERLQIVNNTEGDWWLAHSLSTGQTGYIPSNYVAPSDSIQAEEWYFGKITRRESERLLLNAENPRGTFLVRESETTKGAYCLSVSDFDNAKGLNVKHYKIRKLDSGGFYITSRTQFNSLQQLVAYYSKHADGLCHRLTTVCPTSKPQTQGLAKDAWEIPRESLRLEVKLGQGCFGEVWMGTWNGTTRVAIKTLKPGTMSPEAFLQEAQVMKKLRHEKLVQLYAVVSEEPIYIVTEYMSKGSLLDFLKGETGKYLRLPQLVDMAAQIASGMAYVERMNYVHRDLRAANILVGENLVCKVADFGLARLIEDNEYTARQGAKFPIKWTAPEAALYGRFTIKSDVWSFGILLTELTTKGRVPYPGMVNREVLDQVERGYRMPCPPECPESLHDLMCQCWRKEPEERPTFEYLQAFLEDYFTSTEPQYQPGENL

[3] = biological target: Mitogen-activated protein kinase 14 (Homo sapiens, UniProt Q16539); format: functional;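 further: part of a kinome-wide panel, MAPK14 entry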
Mitogen-activated protein kinase 14, sequence (Q16539 whole entry): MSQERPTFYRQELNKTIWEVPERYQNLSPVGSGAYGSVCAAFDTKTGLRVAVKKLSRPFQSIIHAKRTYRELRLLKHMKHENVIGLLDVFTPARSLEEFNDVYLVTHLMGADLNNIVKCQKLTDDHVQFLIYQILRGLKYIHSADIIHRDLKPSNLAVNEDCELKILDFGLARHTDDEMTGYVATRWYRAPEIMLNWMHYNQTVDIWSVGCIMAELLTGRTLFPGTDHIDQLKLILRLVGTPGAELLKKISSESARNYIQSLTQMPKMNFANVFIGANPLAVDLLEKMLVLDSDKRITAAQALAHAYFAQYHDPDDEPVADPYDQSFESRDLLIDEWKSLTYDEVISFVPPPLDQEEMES

[4] = biological target: Serine/threonine-protein kinase 3 (Homo sapiens, UniProt Q13188); format: functional;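 further: measured as one member of a kinome-wide kinase panel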
[5] = biological target: High affinity nerve growth factor receptor (Homo sapiens, UniProt P04629); format: functional;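 further: NTRK1 tested as one member of a kinome-wide profiling panel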
High affinity nerve growth factor receptor, sequence (P04629 whole entry): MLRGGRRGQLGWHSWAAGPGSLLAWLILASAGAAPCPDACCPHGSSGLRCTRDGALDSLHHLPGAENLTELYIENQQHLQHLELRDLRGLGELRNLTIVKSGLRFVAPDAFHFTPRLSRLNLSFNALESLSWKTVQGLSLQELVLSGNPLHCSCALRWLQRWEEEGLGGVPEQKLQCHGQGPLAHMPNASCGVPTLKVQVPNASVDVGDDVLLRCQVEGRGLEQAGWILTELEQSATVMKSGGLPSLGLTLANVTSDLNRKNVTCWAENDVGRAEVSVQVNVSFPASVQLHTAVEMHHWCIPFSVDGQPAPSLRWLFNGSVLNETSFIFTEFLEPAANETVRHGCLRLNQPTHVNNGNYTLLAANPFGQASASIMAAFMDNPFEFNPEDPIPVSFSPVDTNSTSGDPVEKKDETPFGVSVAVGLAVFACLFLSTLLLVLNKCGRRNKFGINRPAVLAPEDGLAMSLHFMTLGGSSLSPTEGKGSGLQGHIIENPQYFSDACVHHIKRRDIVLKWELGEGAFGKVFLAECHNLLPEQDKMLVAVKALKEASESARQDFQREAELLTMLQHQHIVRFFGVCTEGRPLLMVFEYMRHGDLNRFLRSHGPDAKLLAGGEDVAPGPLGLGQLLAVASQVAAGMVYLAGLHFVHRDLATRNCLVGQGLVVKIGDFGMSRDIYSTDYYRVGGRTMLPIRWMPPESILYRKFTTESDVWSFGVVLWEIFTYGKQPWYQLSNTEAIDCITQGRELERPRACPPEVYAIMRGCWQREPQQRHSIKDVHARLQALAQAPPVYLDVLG

[6] = biological target: Insulin-like growth factor 1 receptor (Homo sapiens, UniProt P08069); test: Navigating the Kinome. Panel member name: IGF1R; format: functional
Insulin-like growth factor 1 receptor, sequence (P08069 31-736 limits assumed): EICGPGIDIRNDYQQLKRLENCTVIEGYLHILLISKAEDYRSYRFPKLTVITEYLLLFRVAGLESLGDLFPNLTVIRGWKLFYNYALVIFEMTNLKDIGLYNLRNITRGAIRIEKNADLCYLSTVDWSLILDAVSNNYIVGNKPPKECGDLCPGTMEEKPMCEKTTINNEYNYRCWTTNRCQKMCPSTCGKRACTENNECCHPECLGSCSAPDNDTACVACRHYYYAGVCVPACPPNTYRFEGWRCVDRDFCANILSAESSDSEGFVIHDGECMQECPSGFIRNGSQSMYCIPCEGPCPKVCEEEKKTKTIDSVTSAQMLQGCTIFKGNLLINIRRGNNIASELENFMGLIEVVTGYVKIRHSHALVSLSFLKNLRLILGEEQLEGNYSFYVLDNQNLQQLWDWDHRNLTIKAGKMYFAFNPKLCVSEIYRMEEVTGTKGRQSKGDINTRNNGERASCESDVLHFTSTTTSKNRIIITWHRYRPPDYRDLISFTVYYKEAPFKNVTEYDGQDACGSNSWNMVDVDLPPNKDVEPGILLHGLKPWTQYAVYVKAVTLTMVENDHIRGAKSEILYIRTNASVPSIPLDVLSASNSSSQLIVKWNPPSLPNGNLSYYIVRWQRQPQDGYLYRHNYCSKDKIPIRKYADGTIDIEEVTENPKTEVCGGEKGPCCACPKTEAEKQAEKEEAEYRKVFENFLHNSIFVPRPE
Insulin-like growth factor 1 receptor, sequence (P08069 741-1367 limits assumed): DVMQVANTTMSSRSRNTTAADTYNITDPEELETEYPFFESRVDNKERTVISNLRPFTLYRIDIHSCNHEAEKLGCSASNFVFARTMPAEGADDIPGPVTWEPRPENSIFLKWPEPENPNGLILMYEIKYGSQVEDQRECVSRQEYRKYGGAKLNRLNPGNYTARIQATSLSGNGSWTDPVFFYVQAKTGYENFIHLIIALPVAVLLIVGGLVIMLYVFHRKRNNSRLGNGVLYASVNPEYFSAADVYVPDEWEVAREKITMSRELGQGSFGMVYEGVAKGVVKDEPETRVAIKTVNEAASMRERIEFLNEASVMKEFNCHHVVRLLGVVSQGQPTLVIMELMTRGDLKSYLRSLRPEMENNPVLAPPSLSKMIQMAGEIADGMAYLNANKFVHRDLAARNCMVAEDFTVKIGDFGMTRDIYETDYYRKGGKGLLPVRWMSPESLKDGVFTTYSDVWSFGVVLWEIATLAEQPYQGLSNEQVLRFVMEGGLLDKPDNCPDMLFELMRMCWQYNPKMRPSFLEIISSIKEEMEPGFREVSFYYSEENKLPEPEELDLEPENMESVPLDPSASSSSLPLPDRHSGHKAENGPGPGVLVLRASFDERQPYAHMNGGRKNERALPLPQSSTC

[7] = biological target: Cyclin-dependent kinase 7 (Homo sapiens, UniProt P50613); format: functional;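 further: value comes from a kinome-wide kinase profiling panel in which CDK7 is one member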
Cyclin-dependent kinase 7, sequence (P50613 whole entry): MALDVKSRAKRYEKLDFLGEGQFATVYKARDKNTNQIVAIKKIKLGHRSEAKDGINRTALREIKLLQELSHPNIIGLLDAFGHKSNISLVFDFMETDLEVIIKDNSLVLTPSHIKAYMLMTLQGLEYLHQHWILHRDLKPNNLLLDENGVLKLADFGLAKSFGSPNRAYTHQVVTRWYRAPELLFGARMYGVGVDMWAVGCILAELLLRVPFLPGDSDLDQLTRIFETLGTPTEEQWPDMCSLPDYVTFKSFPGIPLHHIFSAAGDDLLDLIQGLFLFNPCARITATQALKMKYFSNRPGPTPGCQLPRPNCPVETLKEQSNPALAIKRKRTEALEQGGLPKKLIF

[8] = biological target: Tyrosine-protein kinase SYK (Homo sapiens, UniProt P43405); format: functional
Paired box protein Pax-8 = Paired box protein Pax-8 (Homo sapiens, UniProt Q06710); test: inhibitors of PAX8-driven TPO luciferase reporter, dose response, RMG-I cells, cherry-pick (AID 687027); format: functional, cell-based;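 further: luciferase reporter driven by Pax8 target thyroperoxidase promoter measured by SteadyGlo luminescence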
Phospholipase A2 = Phospholipase A2 (Homo sapiens, UniProt P04054); format: functional;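 further: confirmatory dose-response counterscreen on phospholipase A2, testing hits that came from an ultra-high-throughput screen for ATG4B inhibitors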
Phospholipase A2, sequence (P04054 whole entry): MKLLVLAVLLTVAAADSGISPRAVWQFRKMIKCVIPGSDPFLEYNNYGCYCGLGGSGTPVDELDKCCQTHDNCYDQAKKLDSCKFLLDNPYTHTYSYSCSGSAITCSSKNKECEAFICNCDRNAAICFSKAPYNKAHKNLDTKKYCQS

[9] = biological target: T2, Apoptotic protease-activating factor 1 (Homo sapiens, UniProt O14727); format: functional
T2 sequence (O14727 whole entry): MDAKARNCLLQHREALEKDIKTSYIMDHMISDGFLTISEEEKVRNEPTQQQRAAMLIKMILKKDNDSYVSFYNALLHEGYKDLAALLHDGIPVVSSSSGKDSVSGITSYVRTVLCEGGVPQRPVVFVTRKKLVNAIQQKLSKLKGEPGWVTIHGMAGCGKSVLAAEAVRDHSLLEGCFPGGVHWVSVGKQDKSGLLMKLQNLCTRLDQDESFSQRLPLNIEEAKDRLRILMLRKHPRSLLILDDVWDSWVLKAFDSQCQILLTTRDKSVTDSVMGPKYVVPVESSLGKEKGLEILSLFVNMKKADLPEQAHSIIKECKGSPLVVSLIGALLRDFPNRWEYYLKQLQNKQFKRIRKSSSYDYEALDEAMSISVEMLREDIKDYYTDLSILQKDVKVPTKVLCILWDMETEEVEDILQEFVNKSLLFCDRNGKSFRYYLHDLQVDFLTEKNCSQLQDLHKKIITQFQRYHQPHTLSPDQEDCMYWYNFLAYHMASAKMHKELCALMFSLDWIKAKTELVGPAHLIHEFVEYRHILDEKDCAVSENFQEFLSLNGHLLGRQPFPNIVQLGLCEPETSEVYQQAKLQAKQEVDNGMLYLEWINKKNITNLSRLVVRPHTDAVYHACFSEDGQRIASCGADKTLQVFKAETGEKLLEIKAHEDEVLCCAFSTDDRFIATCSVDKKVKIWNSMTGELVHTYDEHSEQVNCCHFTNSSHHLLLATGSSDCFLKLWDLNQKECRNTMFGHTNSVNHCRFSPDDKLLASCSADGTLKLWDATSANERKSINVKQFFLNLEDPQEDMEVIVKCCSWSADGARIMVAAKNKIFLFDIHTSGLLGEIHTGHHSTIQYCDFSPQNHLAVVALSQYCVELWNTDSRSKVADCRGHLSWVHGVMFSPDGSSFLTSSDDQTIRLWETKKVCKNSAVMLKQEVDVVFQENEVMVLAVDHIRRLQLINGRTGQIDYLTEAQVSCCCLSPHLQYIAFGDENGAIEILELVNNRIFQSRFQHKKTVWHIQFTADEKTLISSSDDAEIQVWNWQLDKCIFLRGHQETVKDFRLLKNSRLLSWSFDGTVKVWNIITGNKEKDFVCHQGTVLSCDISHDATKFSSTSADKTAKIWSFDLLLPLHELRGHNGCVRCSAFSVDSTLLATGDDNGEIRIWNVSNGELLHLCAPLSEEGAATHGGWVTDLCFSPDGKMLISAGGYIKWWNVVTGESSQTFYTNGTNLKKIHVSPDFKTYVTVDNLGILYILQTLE

Cytochrome P450 2C9 = Cytochrome P450 2C9 (Homo sapiens, UniProt P11712)
Cytochrome P450 2C9, sequence (P11712 whole entry): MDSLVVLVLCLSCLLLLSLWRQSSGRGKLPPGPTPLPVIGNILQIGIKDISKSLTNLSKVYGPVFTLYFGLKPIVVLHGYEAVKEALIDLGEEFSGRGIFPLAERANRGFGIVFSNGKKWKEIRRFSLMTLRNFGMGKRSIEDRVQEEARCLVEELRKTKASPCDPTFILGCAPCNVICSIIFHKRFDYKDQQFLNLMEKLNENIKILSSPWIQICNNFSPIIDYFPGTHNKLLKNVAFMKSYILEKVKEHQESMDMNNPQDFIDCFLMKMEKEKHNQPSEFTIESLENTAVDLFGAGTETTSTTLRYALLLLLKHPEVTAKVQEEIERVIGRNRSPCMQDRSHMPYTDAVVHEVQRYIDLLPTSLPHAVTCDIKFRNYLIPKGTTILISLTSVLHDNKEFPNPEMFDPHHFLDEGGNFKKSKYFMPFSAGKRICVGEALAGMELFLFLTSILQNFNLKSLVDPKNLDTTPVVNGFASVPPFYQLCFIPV

[10] = biological target: T3, Heat shock factor protein 1 (Mus musculus, UniProt P38532); test: inhibition of MG132-induced HSE-luciferase signal, confirmation, cell-based, NIH3T3, luminescence, dose retest (AID 2382); format: functional;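 further: NIH3T3 fibroblasts with HSF1-driven luciferase reporter stressed by proteasome inhibitor MG132; luminescence from HSF1-driven luciferase expression after 8 hours of MG132 stress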
T3 sequence (P38532 whole entry): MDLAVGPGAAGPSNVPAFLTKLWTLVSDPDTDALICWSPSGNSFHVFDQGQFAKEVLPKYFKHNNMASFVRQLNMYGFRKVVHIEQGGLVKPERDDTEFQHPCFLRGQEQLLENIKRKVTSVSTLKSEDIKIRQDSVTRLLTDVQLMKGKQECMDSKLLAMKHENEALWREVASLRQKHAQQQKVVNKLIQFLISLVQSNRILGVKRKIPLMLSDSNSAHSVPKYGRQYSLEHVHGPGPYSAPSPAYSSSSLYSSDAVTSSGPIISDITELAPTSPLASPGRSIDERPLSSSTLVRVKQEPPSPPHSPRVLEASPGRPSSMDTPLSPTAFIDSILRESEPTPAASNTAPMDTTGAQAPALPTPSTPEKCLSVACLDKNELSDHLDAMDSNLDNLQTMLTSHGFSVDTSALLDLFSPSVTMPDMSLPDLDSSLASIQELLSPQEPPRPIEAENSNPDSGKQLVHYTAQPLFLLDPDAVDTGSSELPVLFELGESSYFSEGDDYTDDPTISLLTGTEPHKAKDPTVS

`COc1cc2c(cc1Nc1nc(Nc3cccc(F)c3C(N)=O)c3cc[nH]c3n1)N(C(=O)CN(C)C)CC2` was tested, and the Ki [1] was 10000 nM (active), the Ki (Wee1-like protein kinase) was > 2510 nM (inactive) and the Ki [2] was > 2000 nM (inactive). For the same compound, the Ki [3] was > 3980 nM (inactive), the Ki [4] was > 3160 nM (inactive) and the Ki [5] was > 3160 nM (inactive). The Ki [6] was 2 nM (active), the Ki [7] was 2510 nM (active) and the Ki [8] was > 1580 nM (inactive).
With `CCn1nc(/C=C/c2ccccc2)nc2c(=O)n(C)c(=O)nc1-2` the AC50 (Paired box protein Pax-8) was 4210 nM (active), the IC50 (Phospholipase A2) was > 80000 nM (inactive) and the IC50 [9] was 57.2 nM (active).
`CC(C)c1ccc(-c2nnn(CCC(=O)O)n2)cc1` was tested, and the AC50 (Cytochrome P450 2C9) was 31600 nM (inconclusive) and the EC50 [10] was < 160 nM (active).
